Reference: patent US10787452B2 (Vertex Pharmaceuticals Incorporated, priority 2012, dated 2020)

Tests used:
full-length ATR = full-length ATR (Homo sapiens (Human), UniProt Q13535); test: ATR inhibition assay (radioactive-phosphate incorporation); assay type: biochemical; conditions: 5 nM full-length ATR, Ki(app)
Protocol: Compounds were screened for their ability to inhibit ATR kinase using a radioactive-phosphate incorporation assay. Assays were carried out in a mixture of 50 mM Tris/HCl (pH 7.5), 10 mM MgCl2 and 1 mM DTT. Final substrate concentrations were 10 μM [y-33P]ATP (3 mCi 33P ATP/mmol ATP, Perkin Elmer) and 800 μM target peptide ([…]) (SEQ ID NO:1).
Assays were carried out at 25° C. in the presence of 5 nM full-length ATR. An assay stock buffer solution was prepared containing all of the reagents listed above, with the exception of ATP and the test compound of interest. 13.5 μL of the stock solution was placed in a 96 well plate followed by addition of 2 μL of DMSO stock containing serial dilutions of the test compound (typically starting from a final concentration of 15 μM with 3-fold serial dilutions) in duplicate (final DMSO concentration 7%). The plate was pre-incubated for 10 minutes at 25° C. and the reaction initiated by addition of 15 μL [γ-33P]ATP (final concentration 10 μM).
The reaction was stopped after […] by the addition of 30 μL 0.1M phosphoric acid containing 2 mM ATP. […]
After removing mean background values for all of the data points, Ki(app) data were calculated from non-linear regression analysis of the initial rate data using the Prism software package (GraphPad Prism version 3.0 cx for Macintosh, GraphPad Software, San Diego Calif., USA).

[1] = test system: HCT116 colorectal cancer cells; test: Cisplatin sensitization assay (96 h cell viability MTS); assay type: cell-based; conditions: 96 h MTS, compound plus Cisplatin;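 also: compound concentration needed to lower the Cisplatin-alone IC50 by a set fold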
Method in brief: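 Full-matrix combination: compound × cisplatin, 2-fold dilutions from 10 μM top final, co-added; 96 h, 37° C, 5% CO2; MTS read-out after 1 h.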

Sequence of full-length ATR (Q13535 whole entry): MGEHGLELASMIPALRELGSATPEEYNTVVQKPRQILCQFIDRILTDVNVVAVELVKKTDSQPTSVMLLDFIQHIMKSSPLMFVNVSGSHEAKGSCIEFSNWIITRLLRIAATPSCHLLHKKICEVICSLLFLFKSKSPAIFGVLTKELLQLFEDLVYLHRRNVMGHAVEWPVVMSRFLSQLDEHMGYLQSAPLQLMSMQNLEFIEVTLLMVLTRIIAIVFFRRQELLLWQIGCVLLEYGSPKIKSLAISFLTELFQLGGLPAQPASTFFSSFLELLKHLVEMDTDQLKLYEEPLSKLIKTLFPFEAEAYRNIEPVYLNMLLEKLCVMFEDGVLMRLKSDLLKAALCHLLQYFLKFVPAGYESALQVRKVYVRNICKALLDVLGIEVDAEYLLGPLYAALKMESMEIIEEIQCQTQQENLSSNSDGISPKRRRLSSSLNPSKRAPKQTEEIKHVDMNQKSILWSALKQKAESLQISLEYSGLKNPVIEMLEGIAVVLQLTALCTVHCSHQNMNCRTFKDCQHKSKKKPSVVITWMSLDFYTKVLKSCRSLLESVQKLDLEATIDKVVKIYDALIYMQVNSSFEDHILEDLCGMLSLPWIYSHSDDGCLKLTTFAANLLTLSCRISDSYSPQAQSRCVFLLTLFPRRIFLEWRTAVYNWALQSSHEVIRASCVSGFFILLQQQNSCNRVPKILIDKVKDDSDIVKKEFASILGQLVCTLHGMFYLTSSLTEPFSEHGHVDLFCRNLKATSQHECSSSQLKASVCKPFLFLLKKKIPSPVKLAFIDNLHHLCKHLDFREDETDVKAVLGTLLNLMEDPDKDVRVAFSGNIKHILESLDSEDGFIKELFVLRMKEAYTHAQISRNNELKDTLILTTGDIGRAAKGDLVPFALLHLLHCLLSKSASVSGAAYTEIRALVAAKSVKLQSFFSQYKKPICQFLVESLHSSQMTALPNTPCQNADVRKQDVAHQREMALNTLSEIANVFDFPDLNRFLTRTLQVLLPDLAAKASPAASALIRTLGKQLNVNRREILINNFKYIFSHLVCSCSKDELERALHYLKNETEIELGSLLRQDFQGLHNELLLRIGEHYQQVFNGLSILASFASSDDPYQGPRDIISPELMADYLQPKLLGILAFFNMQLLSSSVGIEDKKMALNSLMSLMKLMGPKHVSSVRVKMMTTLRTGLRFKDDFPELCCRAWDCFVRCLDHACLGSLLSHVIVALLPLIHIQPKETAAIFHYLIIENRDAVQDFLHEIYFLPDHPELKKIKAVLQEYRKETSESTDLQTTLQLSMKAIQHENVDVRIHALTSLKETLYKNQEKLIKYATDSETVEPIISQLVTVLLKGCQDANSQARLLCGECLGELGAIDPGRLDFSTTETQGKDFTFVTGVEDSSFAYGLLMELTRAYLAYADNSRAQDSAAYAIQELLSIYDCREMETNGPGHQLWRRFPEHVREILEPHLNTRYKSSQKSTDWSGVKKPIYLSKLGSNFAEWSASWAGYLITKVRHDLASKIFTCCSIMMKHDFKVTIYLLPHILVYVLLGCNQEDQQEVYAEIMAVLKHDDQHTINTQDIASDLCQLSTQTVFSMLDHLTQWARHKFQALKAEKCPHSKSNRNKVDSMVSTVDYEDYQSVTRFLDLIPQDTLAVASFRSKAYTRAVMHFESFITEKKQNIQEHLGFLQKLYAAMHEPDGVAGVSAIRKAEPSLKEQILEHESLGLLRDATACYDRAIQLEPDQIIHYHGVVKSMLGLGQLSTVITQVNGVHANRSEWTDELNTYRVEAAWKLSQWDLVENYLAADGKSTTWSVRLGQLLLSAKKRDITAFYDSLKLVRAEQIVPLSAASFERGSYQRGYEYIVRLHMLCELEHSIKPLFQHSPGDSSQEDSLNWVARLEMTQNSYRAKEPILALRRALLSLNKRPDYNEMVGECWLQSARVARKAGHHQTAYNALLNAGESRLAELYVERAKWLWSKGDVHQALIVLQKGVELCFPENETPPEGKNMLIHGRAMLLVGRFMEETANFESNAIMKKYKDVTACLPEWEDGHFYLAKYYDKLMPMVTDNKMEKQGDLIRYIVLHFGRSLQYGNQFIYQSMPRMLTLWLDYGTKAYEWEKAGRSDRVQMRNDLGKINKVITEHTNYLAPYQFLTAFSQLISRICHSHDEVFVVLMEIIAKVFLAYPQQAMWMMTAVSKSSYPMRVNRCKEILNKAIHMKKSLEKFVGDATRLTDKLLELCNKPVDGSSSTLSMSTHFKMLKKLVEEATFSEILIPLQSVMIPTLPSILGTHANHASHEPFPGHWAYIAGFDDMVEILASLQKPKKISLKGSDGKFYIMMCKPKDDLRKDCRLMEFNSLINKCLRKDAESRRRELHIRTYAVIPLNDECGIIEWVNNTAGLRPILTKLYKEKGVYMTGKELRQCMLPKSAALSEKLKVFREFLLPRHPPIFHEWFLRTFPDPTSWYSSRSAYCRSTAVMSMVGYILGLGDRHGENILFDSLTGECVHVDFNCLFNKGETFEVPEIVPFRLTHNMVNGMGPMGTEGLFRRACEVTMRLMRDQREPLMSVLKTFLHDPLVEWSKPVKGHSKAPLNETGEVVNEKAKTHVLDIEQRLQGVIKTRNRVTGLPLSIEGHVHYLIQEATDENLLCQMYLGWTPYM

SMILES	Ki (full-length ATR) [nM]	Cisplatin Sensitization Assay [1]
Nc1nn2cc(F)cnc2c1C(=O)Nc1cnccc1-c1ccc(C(=O)N2CCN3CCC2CC3)cc1F [I-C-50, N-(4-(4-(1,4-diazabicyclo[3.2.2]nonane-4-carbonyl)-2-fluorophenyl)pyridin-3-yl)-2-amino-6-fluoropyrazolo[1,5-a]pyrimidine-3-carboxamide]	10 to 1000	+++ (Compounds with a Cisplatin sensitization value of <0.02 μM are marked with “+++.”)
Nc1nn2cc(F)cnc2c1C(=O)Nc1cncc(F)c1N1CCC(C(=O)O)CC1 [I-N-92, 1-(3-(2-amino-6-fluoropyrazolo[1,5-a]pyrimidine-3-carboxamido)-5-fluoropyridin-4-yl)piperidine-4-carboxylic Acid]	1000 to 5000	+ (Compounds with a Cisplatin sensitization value >0.2 μM but <5 μM are marked with “+.”)
